Reference: the supplement of paper PMC10627819

Legend:
S. aureus Newman = assay: Bliss interaction score (quartile over a dose matrix) (fitness difference); higher = more antagonism (negative = synergy)
Outline: (§1)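 The Bliss score is observed fitness minus expected fitness, where the expected value is the product of single-drug fitness values inferred from combination data. Fitness is OD595 at entry into stationary phase normalised to the plate's robust no-drug mean and capped at 1. Scores are reported as quartiles spanning technical, biological and donor/recipient replicates.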

B. subtilis 168 = assay: as above
Outline: as §1

S. pneumoniae D39V [1] = assay: as above
Outline: as §1

S. aureus DSM 20231 = assay: as above
Outline: as §1

S. pneumoniae D39V [2] = assay: fitness (endpoint OD595 vs no drug) (fraction); higher = more growth
Outline: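 With the first reading as background, OD595 was measured every 30 min for 14 h in 384-well plates kept at 37 °C and inoculated at OD595 0.01. TSB, LB Lennox or CY was the medium. Fitness is the optical density at the transition into stationary phase divided by the robust mean of no-drug control wells, with a cap of 1.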
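For Bliss interaction score (quartile over a dose matrix) in this document: first quartile when negative (synergy) and third quartile when positive (antagonism).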
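For fitness (endpoint OD595 vs no drug) in this document: OD595 on entry to stationary phase over no-drug wells; at most 1.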

O=C(O[C@@H]1Cc2c(O)cc(O)cc2O[C@@H]1c1cc(O)c(O)c(O)c1)c1cc(O)c(O)c(O)c1 [EGCG] + O=C1CN(/N=C/c2ccc([N+](=O)[O-])o2)C(=O)N1 [Nitrofurantoin]
Settings	Bliss interaction score
B. subtilis 168	0.106
S. aureus DSM 20231	0.103
S. aureus Newman	0.0864
S. pneumoniae D39V [1]	0.0733

fitness, S. pneumoniae D39V [2]
Settings	partner 1.285 µg/mL	partner 2 µg/mL	partner 2.57 µg/mL	partner 4 µg/mL	partner 8 µg/mL
first compound 12.5 µg/mL	0.914	0.858	0.938	0.832	0.558
first compound 25 µg/mL	0.949	0.878	0.924	0.891	0.571
first compound 50 µg/mL	0.954	≥ 1	0.951	0.802	0.566

S. pneumoniae D39V [2], partner 5.14 µg/mL, one replicate
Settings	fitness
first compound 12.5 µg/mL	0.917
first compound 25 µg/mL	0.901
first compound 50 µg/mL	0.921

C[C@@H](O)[C@H]1C(=O)N2C(C(=O)O)=C(SCCNC=N)C[C@H]12 [Imipenem] + COc1ccc(C[C@H](N)C(=O)N[C@H]2[C@@H](O)[C@H](n3cnc4c(N(C)C)ncnc43)O[C@@H]2CO)cc1 [Puromycin]
Settings	Bliss interaction score
B. subtilis 168	0.0681
S. aureus DSM 20231	0.0683
S. aureus Newman	-0.0481
S. pneumoniae D39V [1]	0.0871

fitness, S. pneumoniae D39V [2], one replicate
Settings	first compound 0.005 µg/mL	first compound 0.01 µg/mL	first compound 0.02 µg/mL
partner 1 µg/mL	0.896	0.955	0.973
partner 2 µg/mL	0.931	0.954	0.941
partner 4 µg/mL	0.729	0.791	0.759

fitness, S. pneumoniae D39V [2]
Settings	first compound 0.0065 µg/mL	first compound 0.013 µg/mL	first compound 0.026 µg/mL
partner 1 µg/mL	0.992	0.989	0.964
partner 2 µg/mL	0.96	0.886	0.906
partner 4 µg/mL	0.748	0.783	0.739

CCC[C@@H]1C[C@@H](C(=O)N[C@@H]([C@H]2O[C@H](SC)[C@H](O)[C@@H](O)[C@H]2O)[C@@H](C)O)N(C)C1 [Lincomycin] + CO[C@H]1/C=C/O[C@@]2(C)Oc3c(C)c(O)c4c(O)c(c(/C=N/N5CCN(C)CC5)c(O)c4c3C2=O)NC(=O)/C(C)=C\C=C\[C@H](C)[C@H](O)[C@@H](C)[C@@H](O)[C@@H](C)[C@H](OC(C)=O)[C@@H]1C [Rifampicin]
Settings	Bliss interaction score
B. subtilis 168	-0.0988
S. aureus DSM 20231	-0.0747
S. aureus Newman	0.0333
S. pneumoniae D39V [1]	-0.136

fitness, S. pneumoniae D39V [2], one replicate
Settings	first compound 0.2 µg/mL	first compound 0.4 µg/mL	first compound 0.8 µg/mL
partner 0.025 µg/mL	0.137	0.0822	0.0813
partner 0.2 µg/mL	0	0	0

fitness, S. pneumoniae D39V [2]
Settings	first compound 0.2 µg/mL	first compound 0.215 µg/mL	first compound 0.4 µg/mL	first compound 0.43 µg/mL	first compound 0.8 µg/mL	first compound 0.86 µg/mL
partner 0.05 µg/mL	–	–	0.0846	–	0.0947	0.185
partner 0.1 µg/mL	0.076	–	0.0641	–	0.0864	0.147
partner 0.2 µg/mL	–	0.26	–	0.221	–	0.131

O=C1CN(/N=C/c2ccc([N+](=O)[O-])o2)C(=O)N1 [Nitrofurantoin] + CN[C@@H]1[C@H](O[C@H]2[C@H](O[C@H]3[C@H](O)[C@@H](O)[C@H](N=C(N)N)[C@@H](O)[C@@H]3N=C(N)N)O[C@@H](C)[C@]2(O)C=O)O[C@@H](CO)[C@H](O)[C@H]1O [Streptomycin]
Settings	Bliss interaction score
B. subtilis 168	-0.0807
S. aureus DSM 20231	-0.0532
S. aureus Newman	-0.0496
S. pneumoniae D39V [1]	0.0583

fitness, S. pneumoniae D39V [2]
Settings	first compound 1.285 µg/mL	first compound 2 µg/mL	first compound 2.57 µg/mL	first compound 4 µg/mL	first compound 8 µg/mL
partner 2 µg/mL	0.956	–	0.938	–	–
partner 4 µg/mL	0.953	0.956	0.921	0.936	0.768
partner 8 µg/mL	0.927	0.884	0.918	0.887	0.743

fitness, S. pneumoniae D39V [2], one replicate
Settings	first compound 2 µg/mL	first compound 4 µg/mL	first compound 5.14 µg/mL	first compound 8 µg/mL
partner 2 µg/mL	0.965	0.948	0.86	0.76
partner 4 µg/mL	–	–	0.8	–
partner 8 µg/mL	–	–	0.809	–
partner 16 µg/mL	0.743	0.753	–	0.585

CC[C@H]1OC(=O)[C@H](C)[C@@H](O[C@H]2C[C@@](C)(OC)[C@@H](O)[C@H](C)O2)[C@H](C)[C@@H](O[C@@H]2O[C@H](C)C[C@H](N(C)C)[C@H]2O)[C@](C)(OC)C[C@@H](C)C(=O)[C@H](C)[C@@H](O)[C@]1(C)O [Clarithromycin] + COc1c(N2C[C@@H]3CCCN[C@@H]3C2)c(F)cc2c(=O)c(C(=O)O)cn(C3CC3)c12 [Moxifloxacin]
Settings	Bliss interaction score
B. subtilis 168	0.0403
S. aureus DSM 20231	0.0891
S. aureus Newman	0.123
S. pneumoniae D39V [1]	0.0742

fitness, S. pneumoniae D39V [2], one replicate
Settings	first compound 0.007812 µg/mL	first compound 0.01562 µg/mL	first compound 0.03125 µg/mL
partner 0.0037 µg/mL	0.834	0.823	0.648
partner 0.0075 µg/mL	0.85	0.82	0.6
partner 0.015 µg/mL	0.818	0.765	0.572

fitness, S. pneumoniae D39V [2]
Settings	partner 0.005 µg/mL	partner 0.01 µg/mL	partner 0.02 µg/mL	partner 0.0312 µg/mL	partner 0.0625 µg/mL	partner 0.125 µg/mL
first compound 0.0625 µg/mL	0.716	0.748	0.717	–	–	–
first compound 0.07 µg/mL	–	–	–	0.056	0.0339	0.0389
first compound 0.14 µg/mL	–	–	–	0.0451	0.0439	0.0343
first compound 0.25 µg/mL	0.217	0.235	0.238	–	–	–
first compound 0.28 µg/mL	–	–	–	0.0421	0.0312	0.0325
